Reference: patent publication US9499550B2 (BRISTOL-MYERS SQUIBB COMPANY, priority 2012, dated 2016)
pEC50: −log10 of the molar value. Where two headings read alike, the source gives them in different places.

Legend:
[1] = tested on: HCV genotype 1a (H77 strain) replicon in HUH-7 cells; experiment: HCV replicon luciferase reporter assay, genotype 1a; type: cell-based; conditions: Hepatitis C virus, Huh-7, 72 h, HCV genotype 1a replicon luciferase, 3 days incubation, read-out: LE_1a (EC50, range)
Procedure, shortened: (§1)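 Replicon inhibition for both genotypes was measured as Renilla luciferase signal (EnduRen, 7.5 μM final, 2 h) after 3-day, 37° C exposure of replicon-bearing HUH-7 cells in 4% FCS DMEM, 0.5% DMSO. The 1b construct carries S1179I; the 1a H77 construct carries P1496L and S2204I. Twenty-point, 3-fold dilutions were fitted four-parametrically for EC50, and CC50 was taken from multiplexed Cell Titer-Blue.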

[2] = tested on: HCV genotype 1b (Con1) replicon in HUH-7 cells; experiment: HCV replicon luciferase reporter assay, genotype 1b; type: cell-based; conditions: Hepatitis C virus, Huh-7, 72 h, HCV genotype 1b replicon luciferase, 3 days incubation, read-out: LE_1b (EC50, range)
Procedure, shortened: as §1

Row | Compound | pEC50 [1] | pEC50 [2] | pEC50 ([1]; GETYPE1A) | pEC50 ([2]; GETYPE1B)
1 | COc1cc2ccnc(O[C@@H]3C[C@H]4C(=O)N[C@]5(C(=O)NS(=O)(=O)C6(CF)CC6)C[C@H]5/C=C\CC[C@@H](C)C[C@@H](C)[C@H](NC(=O)C(C)(C)C)C(=O)N4C3)c2cc1F [Compound 4165, (2R,6S,7R,9R,13aS,14aR,16aS,Z)-2-(7-fluoro-6-methoxyisoquinolin-1-yloxy)-N-(1-(fluoromethyl)cyclopropylsulfonyl)-7,9-dimethyl-5,16-dioxo-6-pivalamido-1,2,3,5,6,7,8,9,10,11,13a,14,14a,15,16,16a-hexadecahydrocyclopropa[e]pyrrolo[1,2-a][1,4]diazacyclopentadecine-14a-carboxamide] | > 8.26 | > 8.26 |  | 
2 | C[C@@H]1CC/C=C\[C@@H]2C[C@@]2(C(=O)NS(=O)(=O)C2CC2)NC(=O)[C@@H]2C[C@@H](Oc3ncc(OCC4CC4)c4ccc(F)cc34)CN2C(=O)[C@@H](NC(=O)OC(C)(C)C)[C@H](C)C1 [Compound 4166, tert-butyl (2R,6S,7R,9R,13aS,14aR,16aS,Z)-2-(4-(cyclopropylmethoxy)-7-fluoroisoquinolin-1-yloxy)-14a-(cyclopropylsulfonylcarbamoyl)-7,9-dimethyl-5,16-dioxo-1,2,3,5,6,7,8,9,10,11,13a,14,14a,15,16,16a-hexadecahydrocyclopropa[e]pyrrolo[1,2-a][1,4]diazacyclopentadecin-6-ylcarbamate] | > 8.26 | > 8.26 |  | 
3 | COc1ccc2c(O[C@@H]3C[C@H]4C(=O)N[C@]5(C(=O)NS(=O)(=O)C6(CF)CC6)C[C@H]5/C=C\CC[C@@H](C)C[C@@H](C)[C@H](NC(=O)OC(C)(C)C)C(=O)N4C3)nc(-c3ccc(OC(C)C)cc3)cc2c1 [Compound 4167, tert-butyl (2R,6S,7R,9R,13aS,14aR,16aS,Z)-14a-(1-(fluoromethyl)cyclopropylsulfonylcarbamoyl)-2-(3-(4-isopropoxyphenyl)-6-methoxyisoquinolin-1-yloxy)-7,9-dimethyl-5,16-dioxo-1,2,3,5,6,7,8,9,10,11,13a,14,14a,15,16,16a-hexadecahydrocyclopropa[e]pyrrolo[1,2-a][1,4]diazacyclopentadecin-6-ylcarbamate] | > 8.26 | > 8.26 |  | 
4 | COc1cc2ccnc(O[C@@H]3C[C@H]4C(=O)N[C@]5(C(=O)NS(=O)(=O)C6CC6)C[C@H]5/C=C\CC[C@@H](C)C[C@@H](C)[C@H](NC(=O)OC(C)(C)C(F)(F)F)C(=O)N4C3)c2cc1F [Compound 4169] |  |  | > 8.26 | > 8.26
5 | COc1ccc2ncc(O[C@@H]3C[C@H]4C(=O)N[C@]5(C(=O)NS(=O)(=O)C6(CF)CC6)C[C@H]5/C=C\CC[C@@H](C)C[C@@H](C)[C@H](NCC(F)F)C(=O)N4C3)nc2c1 [Compound 4170] | < 7.06 | 6.99 to 8.32 |  | 
6 | COc1ccc2c(O[C@@H]3C[C@H]4C(=O)N[C@]5(C(=O)NS(=O)(=O)C6(CF)CC6)C[C@H]5/C=C\CC[C@@H](C)C[C@@H](C)[C@H](NC(=O)c5ccncc5F)C(=O)N4C3)ncc(OC)c2c1 [Compound 4171, (2R,6S,7R,9R,13aS,14aR,16aS,Z)-2-(4,6-dimethoxyisoquinolin-1-yloxy)-6-(3-fluoroisonicotinamido)-N-(1-(fluoromethyl)cyclopropylsulfonyl)-7,9-dimethyl-5,16-dioxo-1,2,3,5,6,7,8,9,10,11,13a,14,14a,15,16,16a-hexadecahydrocyclopropa[e]pyrrolo[1,2-a][1,4]diazacyclopentadecine-14a-carboxamide] | > 8.26 | > 8.26 |  | 
7 | COc1ccc2c(O[C@@H]3C[C@H]4C(=O)N[C@]5(C(=O)NS(=O)(=O)C6(C)CC6)C[C@H]5/C=C\CC[C@@H](C)C[C@@H](C)[C@H](NC(=O)OC(C)(C)C(F)(F)F)C(=O)N4C3)cc(-c3ccc(OC(C)C)cc3)nc2c1 [Compound 4172] |  |  | > 8.26 | > 8.26
8 | COc1ccc2c(O[C@@H]3C[C@H]4C(=O)N[C@]5(C(=O)NS(=O)(=O)C6(C)CC6)C[C@H]5/C=C\CC[C@@H](C)C[C@@H](C)[C@H](NC(=O)OC(C)(C)C)C(=O)N4C3)ncc(N3CCN(CC(F)F)CC3)c2c1 [Compound 4173] |  |  | > 8.26 | > 8.26
9 | CC[C@@H]1C[C@H](C)CC/C=C\[C@@H]2C[C@@]2(C(=O)NS(=O)(=O)C2(C)CC2)NC(=O)[C@@H]2C[C@@H](Oc3nccc4cc(OC)c(F)cc34)CN2C(=O)[C@H]1NC(=O)OC(C)(C)C [Compound 4175, tert-butyl (2R,6S,7R,9R,13aS,14aR,16aS,Z)-7-ethyl-2-(7-fluoro-6-methoxyisoquinolin-1-yloxy)-9-methyl-14a-(1-methylcyclopropylsulfonylcarbamoyl)-5,16-dioxo-1,2,3,5,6,7,8,9,10,11,13a,14,14a,15,16,16a-hexadecahydrocyclopropa[e]pyrrolo[1,2-a][1,4]diazacyclopentadecin-6-ylcarbamate] | > 8.26 | > 8.26 |  | 
10 | CC[C@@H]1C[C@H](C)CC/C=C\[C@@H]2C[C@@]2(C(=O)NS(=O)(=O)C2(C)CC2)NC(=O)[C@@H]2C[C@@H](Oc3nccc4cc(OC)ccc34)CN2C(=O)[C@H]1NC(=O)O[C@H](C)C(F)(F)F [Compound 4177, (R)-1,1,1-trifluoropropan-2-yl (2R,6S,7R,9R,13aS,14aR,16aS,Z)-7-ethyl-2-(6-methoxyisoquinolin-1-yloxy)-9-methyl-14a-(1-methylcyclopropylsulfonylcarbamoyl)-5,16-dioxo-1,2,3,5,6,7,8,9,10,11,13a,14,14a,15,16,16a-hexadecahydrocyclopropa[e]pyrrolo[1,2-a][1,4]diazacyclopentadecin-6-ylcarbamate] | > 8.26 | > 8.26 |  | 
11 | COc1ccc2c(O[C@@H]3C[C@H]4C(=O)N[C@]5(C(=O)NS(=O)(=O)C6(C)CC6)C[C@H]5/C=C\CC[C@@H](C)C[C@@H](C)[C@H](NC(=O)OC(C)(C)C(F)(F)F)C(=O)N4C3)ncc(-c3ccc(OC)nc3)c2c1 [Compound 4178] |  |  | > 8.26 | > 8.26
12 | C[C@@H]1CC/C=C\[C@@H]2C[C@@]2(C(=O)NS(=O)(=O)C2(C)CC2)NC(=O)[C@@H]2C[C@@H](Oc3cnc4ccc(F)cc4n3)CN2C(=O)[C@@H](NC(=O)OC(C)(C)C)[C@H](C)C1 [Compound 4179, tert-butyl (2R,6S,7R,9R,13aS,14aR,16aS,Z)-2-(7-fluoroquinoxalin-2-yloxy)-7,9-dimethyl-14a-(1-methylcyclopropylsulfonylcarbamoyl)-5,16-dioxo-1,2,3,5,6,7,8,9,10,11,13a,14,14a,15,16,16a-hexadecahydrocyclopropa[e]pyrrolo[1,2-a][1,4]diazacyclopentadecin-6-ylcarbamate] | > 8.26 | > 8.26 |  | 
13 | CCOc1cnc(O[C@@H]2C[C@H]3C(=O)N[C@]4(C(=O)NS(=O)(=O)C5(C)CC5)C[C@H]4/C=C\CC[C@@H](C)C[C@@H](CC)[C@H](NC(=O)OC(C)(C)C)C(=O)N3C2)c2ccccc12 [Compound 4180, tert-butyl (2R,6S,7R,9R,13aS,14aR,16aS,Z)-2-(4-ethoxyisoquinolin-1-yloxy)-7-ethyl-9-methyl-14a-(1-methylcyclopropylsulfonylcarbamoyl)-5,16-dioxo-1,2,3,5,6,7,8,9,10,11,13a,14,14a,15,16,16a-hexadecahydrocyclopropa[e]pyrrolo[1,2-a][1,4]diazacyclopentadecin-6-ylcarbamate] | > 8.26 | > 8.26 |  | 
14 | CC[C@@H]1C[C@H](C)CC/C=C\[C@@H]2C[C@@]2(C(=O)NS(=O)(=O)C2(C)CC2)NC(=O)[C@@H]2C[C@@H](Oc3ncc(OC)c4ccc(F)cc34)CN2C(=O)[C@H]1NC(=O)OC(C)(C)C [Compound 4181, tert-butyl (2R,6S,7R,9R,13aS,14aR,16aS,Z)-7-ethyl-2-(7-fluoro-4-methoxyisoquinolin-1-yloxy)-9-methyl-14a-(1-methylcyclopropylsulfonylcarbamoyl)-5,16-dioxo-1,2,3,5,6,7,8,9,10,11,13a,14,14a,15,16,16a-hexadecahydrocyclopropa[e]pyrrolo[1,2-a][1,4]diazacyclopentadecin-6-ylcarbamate] | > 8.26 | > 8.26 |  | 
15 | CC[C@@H]1C[C@H](C)CC/C=C\[C@@H]2C[C@@]2(C(=O)NS(=O)(=O)C2(C)CC2)NC(=O)[C@@H]2C[C@@H](Oc3nccc4cc(OC)ccc34)CN2C(=O)[C@H]1NC(=O)OC(C)(C)C(F)(F)F [Compound 4182] |  |  | > 8.26 | > 8.26
16 | COc1ccc2nc(C(F)(F)F)c(O[C@@H]3C[C@H]4C(=O)N[C@]5(C(=O)NS(=O)(=O)C6(C)CC6)C[C@H]5/C=C\CC[C@@H](C)C[C@@H](C)[C@H](NC(=O)OC(C)(C)C)C(=O)N4C3)nc2c1 [Compound 4183, tert-butyl (2R,6S,7R,9R,13aS,14aR,16aS,Z)-2-(7-methoxy-3-(trifluoromethyl)quinoxalin-2-yloxy)-7,9-dimethyl-14a-(1-methylcyclopropylsulfonylcarbamoyl)-5,16-dioxo-1,2,3,5,6,7,8,9,10,11,13a,14,14a,15,16,16a-hexadecahydrocyclopropa[e]pyrrolo[1,2-a][1,4]diazacyclopentadecin-6-ylcarbamate] | > 8.26 | > 8.26 |  | 
17 | CCOc1cnc(O[C@@H]2C[C@H]3C(=O)N[C@]4(C(=O)NS(=O)(=O)C5CC5)C[C@H]4/C=C\CC[C@@H](C)C[C@@H](CC)[C@H](NC(=O)OC(C)(C)C(F)(F)F)C(=O)N3C2)c2ccccc12 [Compound 4185] |  |  | > 8.26 | > 8.26
18 | CC[C@@H]1C[C@H](C)CC/C=C\[C@@H]2C[C@@]2(C(=O)NS(=O)(=O)C2(C)CC2)NC(=O)[C@@H]2C[C@@H](Oc3ncc(OC)c4ccc(Cl)cc34)CN2C(=O)[C@H]1NC(=O)OC(C)(C)C(F)(F)F [Compound 4188] |  |  | > 8.26 | > 8.26
